The target of assay [1] is T1, Peptidase M28 domain-containing protein (Prevotella nigrescens CC14M, UniProt V8CNC2).
T1 sequence (V8CNC2 whole entry): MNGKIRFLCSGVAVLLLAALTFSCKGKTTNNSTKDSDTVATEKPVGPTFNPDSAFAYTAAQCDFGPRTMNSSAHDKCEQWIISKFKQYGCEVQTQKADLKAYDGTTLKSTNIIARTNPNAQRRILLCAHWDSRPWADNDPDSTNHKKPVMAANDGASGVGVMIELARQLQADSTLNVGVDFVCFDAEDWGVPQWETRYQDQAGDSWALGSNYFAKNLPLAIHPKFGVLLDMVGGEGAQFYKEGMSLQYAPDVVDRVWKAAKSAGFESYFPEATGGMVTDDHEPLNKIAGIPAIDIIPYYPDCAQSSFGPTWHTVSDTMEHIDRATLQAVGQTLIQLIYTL

The target in assay [2] is T2, Glutamine cyclotransferase-related protein (Porphyromonas gingivalis (strain ATCC BAA-308 / W83), UniProt Q7MT37).
T2 sequence (Q7MT37 whole entry): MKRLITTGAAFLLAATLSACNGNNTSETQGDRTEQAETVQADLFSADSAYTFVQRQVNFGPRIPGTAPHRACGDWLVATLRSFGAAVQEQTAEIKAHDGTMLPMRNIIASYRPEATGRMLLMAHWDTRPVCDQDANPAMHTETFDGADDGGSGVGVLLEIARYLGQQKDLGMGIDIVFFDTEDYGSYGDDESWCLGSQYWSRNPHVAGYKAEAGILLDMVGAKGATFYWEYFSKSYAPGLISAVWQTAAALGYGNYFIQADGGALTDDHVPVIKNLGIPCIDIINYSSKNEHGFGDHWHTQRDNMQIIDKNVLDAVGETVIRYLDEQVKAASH
Kind of assay: Inhibition of Glutaminyl Cyclases. The protocol: For inhibitor testing, the sample composition was the same as described above, except for the addition of the putative inhibitory compound. […] Inhibitory constants were determined using different concentration of H-Gln-AMC varying from Km-2 Km. Final concentration of bacterial QC was in a range between 25 nM-50 nM.

Assay [3] concerns the target Glutaminyl-peptide cyclotransferase (Homo sapiens, UniProt Q16769).
For assay [4], the target named is T3, Peptidase, M28 family (Tannerella forsythia (strain ATCC 43037 / JCM 10827 / CCUG 21028 A / KCTC 5666 / FDC 338), UniProt G8UMP8).
T3 sequence (G8UMP8 whole entry): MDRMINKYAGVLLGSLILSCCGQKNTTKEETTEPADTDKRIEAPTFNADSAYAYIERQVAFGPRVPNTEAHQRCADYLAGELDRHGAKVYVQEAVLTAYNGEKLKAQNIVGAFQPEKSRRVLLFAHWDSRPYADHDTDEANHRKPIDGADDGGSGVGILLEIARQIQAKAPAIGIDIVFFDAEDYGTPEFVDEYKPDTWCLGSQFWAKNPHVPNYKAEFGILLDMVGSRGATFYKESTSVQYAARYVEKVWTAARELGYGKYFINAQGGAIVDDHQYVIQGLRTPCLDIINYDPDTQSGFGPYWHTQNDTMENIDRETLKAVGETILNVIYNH

Sequence of Glutaminyl-peptide cyclotransferase (Q16769 whole entry): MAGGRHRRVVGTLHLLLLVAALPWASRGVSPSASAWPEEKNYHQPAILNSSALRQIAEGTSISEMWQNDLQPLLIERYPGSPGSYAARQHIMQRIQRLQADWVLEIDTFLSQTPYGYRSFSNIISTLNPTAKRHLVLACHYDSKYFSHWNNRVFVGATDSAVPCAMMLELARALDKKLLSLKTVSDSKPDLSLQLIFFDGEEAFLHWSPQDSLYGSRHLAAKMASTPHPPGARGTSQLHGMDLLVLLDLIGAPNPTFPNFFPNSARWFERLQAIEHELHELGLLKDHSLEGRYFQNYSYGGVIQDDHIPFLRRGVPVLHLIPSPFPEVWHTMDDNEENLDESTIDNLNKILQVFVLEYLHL

On to `c1ccc(CNc2ccc3nc[nH]c3n2)cc1` [US11958871, Example 1], for which the inhibition constant (Ki) (commonly a measure of affinity in units of concentration, obtained from inhibition or displacement) in assay [1] was determined as 9400 nM.
Consider `c1cc(CNc2cnc3[nH]cnc3c2)cc(N2CCCCC2)c1` [US11958871, Example 9], for which, in assay [2], the Ki was found to be 442 nM.
`COc1cccc(CNc2cnc3[nH]cnc3c2)c1` [US11958871, Example 6]: the results for the inhibitory constant (Ki) in assay [2] and in assay [3] were 77 nM and 599 nM, respectively.
Consider `c1ccc(CNc2cnc3[nH]cnc3c2)cc1` [US11958871, Example 2], for which the values for the inhibition constant (Ki) in assay [2], in assay [4] and in assay [3] were 149 nM, 1400 nM and 1280 nM, respectively.
Take `c1nc2cc(NCc3ccsc3)cnc2[nH]1` [US11958871, Example 8]: the inhibition constant (Ki) in assay [2] stood at 185 nM; in assay [3], 1870 nM.
Compound `COc1ccc(CNc2cnc3[nH]cnc3c2)cc1` [US11958871, Example 7] had an inhibitory constant (Ki) in assay [2] of 83 nM.
For `c1cncc(CNc2cnc3[nH]cnc3c2)c1` [US11958871, Example 11], in assay [2], the affinity, expressed as Ki, was 139 nM.
`Clc1cccc(CNc2cnc3[nH]cnc3c2)c1` [US11958871, Example 5]: the figures for the inhibition constant (Ki) in assay [2] and in assay [3] were 106 nM and 769 nM, respectively.
Consider `Fc1cc(CNc2cnc3[nH]cnc3c2)cc(F)c1F` [US11958871, Example 3], for which the Ki in assay [2] turned out to be 157 nM.
As to `c1nc2cc(NCc3ccc4c(c3)OCCO4)cnc2[nH]1` [US11958871, Example 12], the Ki in assay [2] worked out at 44 nM; in assay [4] it was 680 nM; in assay [3], 543 nM; in assay [1], 728 nM.
For `Clc1ccc(CNc2cnc3[nH]cnc3c2)cc1Cl` [US11958871, Example 14], the Ki in assay [2] amounted to 53 nM; in assay [4], 358 nM; in assay [3], 431 nM.
In the case of `NCCOc1ccc(CNc2cnc3[nH]cnc3c2)cc1` [US11958871, Example 16], the inhibition constant (Ki) came out at 30 nM in assay [2], 317 nM in assay [4] and 1070 nM in assay [3].
In the case of `c1ccc(CNc2cnc3[nH]cnc3c2)nc1` [US11958871, Example 10], the Ki in assay [2] worked out at 395 nM.
On to `COc1ccc(CNc2cnc3[nH]cnc3c2)cc1OC` [US11958871, Example 13], for which the inhibition constant (Ki) in assay [2] worked out at 133 nM; in assay [3], 556 nM.
For the compound `CCCOc1ccc(CNc2cnc3[nH]cnc3c2)cc1` [US11958871, Example 15], in assay [2], the affinity corresponds to a Ki of 34 nM. This counts as double-digit nanomolar.

Values taken from BindingDB's records for patent US11958871 (Fraunhofer-Gesellschaft Zur Forderung Der Angewandten …, 2024).
